These results are taken from US8268809B2, “Kinase inhibitors for preventing or treating pathogen infection and method of use thereof” (priority 2006, dated 2012).

SMILES strings stand for the structures. Entries after “also recorded” stand apart in the source; their conditions may differ.
For VACCINIA PLAQUE ASSAY 2 in this document: test concentration or dose not given here.

This test relates to vaccinia virus. The test is classed as cell-based.
Turning to `O=C(Nc1cccc(-c2ccc(Cl)nn2)c1)Oc1ccccc1` [LG2-111], the “VACCINIA Plaque Assay” value is on record as “PINPOINT PLAQUES”.
With `COc1ccc(-c2n[nH]c3nc(-c4ccc(C(=O)c5ccccc5)cc4)ccc23)cc1` [APcK-34], the “Plaque phenotype due to drug treatment (FIGS. 1, 2, 4)” value (“Plaque phenotype due” below) is “small plaque and large comets; also recorded: small plaques with large comets”; the “VACCINIA Plaque Assay” value was “SMALL PLAQUES, LARGE COMETS”.
As to `COc1ccccc1NS(=O)(=O)c1cccc(Nc2cc(-c3ccc(NC(C)=O)cc3)ncn2)c1` [Eph2_wbz 106], the “Class category of infected monolayers in plaque assay” value (“Class category of infected monolayers” below) is “Class III”, the “VACCINIA PLAQUE ASSAY 2” value is “SMALLER PLAQUES THAN WT” and the “VACCINIA Plaque Assay” value is recorded as “NO PLAQUES”.
With `COc1cccc(-c2cc(Nc3cccc(S(=O)(=O)Nc4ccccc4OC)c3)ncn2)c1` [Eph2_wbz 112], the “Class category of infected monolayers” value is reported as “Class III”, the “VACCINIA PLAQUE ASSAY 2” value is “PINPOINT” and the “VACCINIA Plaque Assay” value was “SMALL PLAQUES”.
For `O=C(Nc1cccc(-c2ccc3nnc(-c4ccc[nH]4)n3n2)c1)c1cccc([N+](=O)[O-])c1` [YYB34], the “VACCINIA Plaque Assay” value is “LARGE COMETS”.
With `CN(C)CCCNC(=O)/C=C\C(=O)Nc1ccc2ncnc(Nc3cccc(I)c3)c2c1` [JGAP-13], the “Plaque phenotype due” value is “more plaque formations than wild type; also recorded: more plaques than WT” and the “VACCINIA Plaque Assay” value was “MORE PLAQUES THAN WT”.
With `Cc1ccc(-n2c(=O)[nH]c3c(C(N)=O)nc(-c4c(Cl)cccc4[N+](=O)[O-])nc32)cc1` [dm-I-193], the “Class category of infected monolayers” value is “Class III”, the “VACCINIA PLAQUE ASSAY 2” value was “NO PLAQUES” and the “VACCINIA Plaque Assay” value is “SMALL PLAQUES”.
For `Cc1ccc(NC(=O)c2ccc(CN3CCN(C)CC3)cc2)cc1Nc1nccc(-c2cnccc2C)n1` [StiAF3_Ue] the same measures were “Class III”, “NO PLAQUES” and “NO PLAQUES”.
On to `Fc1ccc(CNc2nccn3c(Br)cnc23)cc1` [LG2-91], for which the “Class category of infected monolayers” value was “Class III”; the “Plaque phenotype due” value is reported as “no pinpoint plaque formed; also recorded: no plaques”; the “VACCINIA PLAQUE ASSAY 2” value is “NO PLAQUES”; the “VACCINIA Plaque Assay” value is “NO PLAQUES”.
For the molecule `Cn1c(=O)c(-c2c(Cl)cccc2Cl)cc2cnc(Nc3ccc(Br)cc3)nc21` [PD-Br], the “Class category of infected monolayers” value was “Class III”; the “VACCINIA PLAQUE ASSAY 2” value is reported as “NO PLAQUES”; the “VACCINIA Plaque Assay” value is “SMALL PLAQUES, CPE”.
On the same counts, the results for `O=C(Nc1cccc(-c2ccc(Cl)nn2)c1)c1cccc([N+](=O)[O-])c1` [YYB19] are “Class III”, “NO PLAQUES” and “PINPOINT PLAQUES”.
Take `Cc1ccc(-c2ccnc(Nc3cc(NC(=O)c4ccc(CN5CCN(C)CC5)cc4)ccc3C)n2)cn1` [WBZ-4]: the “Class category of infected monolayers” value is on record as “Class II”, the “VACCINIA PLAQUE ASSAY 2” value was “SMALL PLAQUES” and the “VACCINIA Plaque Assay” value is “SMALL PLAQUES”.
For the molecule `CC(=O)Nc1cccc(-c2ccc3c(-c4ccc(C#N)cc4)n[nH]c3n2)c1` [APcK-44], the “Class category of infected monolayers” value was “Class III”, the “VACCINIA PLAQUE ASSAY 2” value is recorded as “PINPOINT PLAQUES” and the “VACCINIA Plaque Assay” value is reported as “SMALL PLAQUES WITH COMETS”.
On to `Cc1ccc(-c2n[nH]c3nc(-c4ccc(C(=O)c5ccccc5)cc4)ccc23)cc1F` [APcK-37], for which the “VACCINIA PLAQUE ASSAY 2” value is “SMALL PLAQUES”.
Still for that read-out and setting: the result for `COc1ccc(-c2n[nH]c3nc(-c4ccc(O)cc4OC)ccc23)cc1` [APcK-31] reads “SMALL PLAQUES”.
With `O=C(Nc1cccc(-c2ccc3nncn3n2)c1)c1cccc([N+](=O)[O-])c1` [YYB31], the “Class category of infected monolayers” value is given as “Class III”, the “VACCINIA PLAQUE ASSAY 2” value was “PINPOINTS” and the “VACCINIA Plaque Assay” value is on record as “FEW COMETS”.
